Laboratory results from patent publication US20040171090A1, “Anti-tumor antigen against HTLV-I tumor or antigen epitope thereof” (priority 2001, published 2004).
Peptide text beside a SMILES is read from it.

Legend:
[1] = test system: HTLV-I-infected tumor cells, FPM1-V1AX; test: Vaccine effect: splenic T cells of immunized nu/+ rats transferred to nu/nu rats given FPM1-V1AX, tumor volume; format: in vivo, rat; settings: nu/+ rats immunized subcutaneously twice, two-week interval, 100 μg peptide and/or ISS-ODN
[2] = test system: HTLV-I-specific CTL cell lines; settings: for cytotoxic activity of HTLV-I-specific CTL cell lines against target cells sensitized with peptide (FIG. 6): 15-24 mer peptides 10 μM, 37° C. 1 hour, release assay 6 hours; for cytotoxic activity of HTLV-I-specific CTL cell lines against target cells sensitized with peptide (FIG. 6) / cytotoxicity of long-term-cultured CTL cell lines against target cells sensitized with peptide (FIG. 7) / peptide concentration necessary to induce cytotoxic activity of the same extent as Tax 180-188: E/T 10; for cytotoxicity of long-term-cultured CTL cell lines against target cells sensitized with peptide (FIG. 7): peptides 10 μM; for peptide concentration necessary to induce cytotoxic activity of the same extent as Tax 180-188: G14 cells treated 1 hour with serially diluted peptide

**Q.** For 5′-TGACTGTGAACGTTCGAGATGA-3′ [ISS-ODN], which “suppression effect on tumor proliferation by splenic T cells from immunized rats (tumor volume, FIG. 12)” value [1] is on record?
**A.** Its value is “not recognized”.

**Q.** For `CC[C@H](C)[C@H](NC(=O)[C@H](CCCCN)NC(=O)[C@H](Cc1ccc(O)cc1)NC(=O)[C@H](CC(C)C)NC(=O)[C@H](CC(C)C)NC(=O)[C@H](CCC(=O)O)NC(=O)[C@H](CCC(=O)O)NC(=O)[C@@H](NC(=O)[C@H](CCCNC(=N)N)NC(=O)[C@H](CCCCN)NC(=O)[C@H](Cc1ccc(O)cc1)NC(=O)[C@@H]1CCCN1C(=O)[C@@H](NC(=O)[C@H](CC(N)=O)NC(=O)[C@@H](NC(=O)[C@H](CC(C)C)NC(=O)[C@H](Cc1ccccc1)NC(=O)[C@H](C)NC(=O)CNC(=O)[C@H](CC(C)C)NC(=O)[C@H](CCC(N)=O)NC(=O)CN)[C@@H](C)O)C(C)C)[C@@H](C)CC)C(=O)N[C@@H](CO)C(=O)N[C@@H](CC(C)C)C(=O)O` [Tax 177-200], which “cytotoxic activity of HTLV-I-specific CTL cell lines against target cells sensitized with peptide (FIG. 6)” value (shortened to “cytotoxic activity … (FIG. 6)”) ([2]; G14 cells) is on record?
**A.** Its value is “effectively dissolve”.

**Q.** And the “cytotoxicity of long-term-cultured CTL cell lines against target cells sensitized with peptide (FIG. 7)” value ([2]; G14 cells)?
**A.** The value was “notably dissolved”.

**Q.** With `CC(C)C[C@H](NC(=O)[C@H](Cc1ccccc1)NC(=O)[C@H](C)N)C(=O)N[C@H](C(=O)N[C@@H](CC(N)=O)C(=O)N[C@H](C(=O)N1CCC[C@H]1C(=O)N[C@@H](Cc1ccc(O)cc1)C(=O)N[C@@H](CCCCN)C(=O)O)C(C)C)[C@@H](C)O` [Tax 181-189] (H-AFLTNVPYK-OH; N-terminus and C-terminus assumed) as the molecule, how does the “peptide concentration necessary to induce cytotoxic activity of the same extent as Tax 180-188” value [2] read?
**A.** The value was 1 µM.

**Q.** For `CC[C@H](C)[C@H](NC(=O)[C@H](CCCNC(=N)N)NC(=O)[C@H](CCCCN)NC(=O)[C@H](Cc1ccc(O)cc1)NC(=O)[C@@H]1CCCN1C(=O)[C@@H](NC(=O)[C@H](CC(N)=O)NC(=O)[C@@H](NC(=O)[C@H](CC(C)C)NC(=O)[C@H](Cc1ccccc1)NC(=O)[C@H](C)N)[C@@H](C)O)C(C)C)C(=O)N[C@@H](CCC(=O)O)C(=O)N[C@@H](CCC(=O)O)C(=O)N[C@@H](CC(C)C)C(=O)N[C@@H](CC(C)C)C(=O)O` [Tax 181-195], which “cytotoxic activity … (FIG. 6)” value ([2]; G14 cells) is on record?
**A.** Its value is “effectively dissolve”.

**Q.** What about the “cytotoxicity of long-term-cultured CTL cell lines against target cells sensitized with peptide (FIG. 7)” value ([2]; G14 cells) of the same molecule?
**A.** The value was “notably dissolved”.

**Q.** `CC(C)C[C@H](NC(=O)[C@@H](N)Cc1ccccc1)C(=O)N[C@H](C(=O)N[C@@H](CC(N)=O)C(=O)N[C@H](C(=O)N1CCC[C@H]1C(=O)N[C@@H](Cc1ccc(O)cc1)C(=O)N[C@@H](CCCCN)C(=O)N[C@@H](CCCNC(=N)N)C(=O)O)C(C)C)[C@@H](C)O` [Tax 182-190] (H-FLTNVPYKR-OH; N-terminus and C-terminus assumed) was tested. Which “peptide concentration necessary to induce cytotoxic activity of the same extent as Tax 180-188” value [2] did it give?
**A.** Its value is 10 µM.

**Q.** With LGAFLTNVP [Tax 179-187] as the molecule, how does the “CTL sensitivity of target cells sensitized with 9 amino acid synthetic peptides (FIG. 8)” value ([2]; G14 cells, 9 mer peptides, same method as for the 15-24 mers) read?
**A.** Its value is “exhibited CTL sensitivity”.

**Q.** For “Tax 17-40: partially overlapping synthetic peptide (15-24 mers), partial peptide in the Tax protein (VYVFGDCVQGDWCPISGGLCSARL)”, which “cytotoxic activity … (FIG. 6)” value ([2]; G14 cells) is on record?
**A.** The value was “low cytotoxic activity”.

**Q.** How did the “cytotoxic activity … (FIG. 6)” value ([2]; G14 cells) turn out when “Tax 33-56: partially overlapping synthetic peptide (15-24 mers), partial peptide in the Tax protein (GGLCSARLHRHALLATCPEHQITW)” was run?
**A.** The value was “low cytotoxic activity”.

**Q.** Which “cytotoxic activity … (FIG. 6)” value ([2]; G14 cells) does the source give for “Tax 81-104: partially overlapping synthetic peptide (15-24 mers), partial peptide in the Tax protein (QRTSKTLKVLTPPITHTTPNIPPS)” here?
**A.** The value was “low cytotoxic activity”.

**Q.** “Tax 97-120: partially overlapping synthetic peptide (15-24 mers), partial peptide in the Tax protein (TTPNIPPSFLQAMRKYSPFRNGYM)” was tested. Which “cytotoxic activity … (FIG. 6)” value ([2]; G14 cells) did it give?
**A.** Its value is “low cytotoxic activity”.
